Experimental data: the supplement of paper PMC9663587

What was measured:
Test in all cases: area over the GR curve, 72 h; higher = more effect;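 also: Dye Drop or Deep Dye Drop imaging of viable cells in 384-well plates (Hoechst nuclei, LIVE/DEAD dye), nine half-log doses, GR normalized to DMSO controls and time-zero plates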
184A1 = system: 184A1
BT549 = system: BT549
CAL851 = system: CAL851
EFM19 = system: EFM19
EVSAT = system: EVSAT
HCC1143 = system: HCC1143
HCC1937 = system: HCC1937
MDAMB436 = system: MDAMB436
MDAMB468 = system: MDAMB468
PDX1328 = system: PDX1328
SUM159 = system: SUM159
SUM190PT = system: SUM190PT

| Compound | area over the GR curve (184A1) [GR] | area over the GR curve (BT549) [GR] | area over the GR curve (CAL851) [GR] | area over the GR curve (EFM19) [GR] | area over the GR curve (EVSAT) [GR] | area over the GR curve (HCC1143) [GR] | area over the GR curve (HCC1937) [GR] | area over the GR curve (MDAMB436) [GR] | area over the GR curve (MDAMB468) [GR] | area over the GR curve (PDX1328) [GR] | area over the GR curve (SUM159) [GR] | area over the GR curve (SUM190PT) [GR] |
| --- | --- | --- | --- | --- | --- | --- | --- | --- | --- | --- | --- | --- |
| CCC(=O)Nc1ccc(C(=O)Nc2ccc(Nc3ncc4c(n3)N(C)c3ccc(C)cc3C(=O)N4C)cc2)cc1 [FMF-03-145-1] | 1 | 1.02 | 0.626 | 0.341 | 1 | 0.389 | 0.464 | 0.465 | 0.572 | 0.808 | 0.476 | 0.94 |
| COc1cc(N2CCN(C)CC2)ccc1Nc1ncc2c(n1)N(C)c1ccccc1C(=O)N2CC(F)(F)F [FMF-03-146-1] | 0.0018 | 0.0127 | 0.0805 | 0.0185 | -0.0034 | 0.0546 | 0.0547 | -0.005 | 0.0476 | 0.071 | 0.0317 | 0.101 |
| CN1CC[C@H](c2c(O)cc(O)c3c(=O)cc(-c4ccccc4Cl)oc23)[C@H](O)C1 [Flavopiridol] (max 1 µM) | 0.418 | 0.257 | 0.3 | 0.191 | 0.157 | 0.235 | 0.238 | 0.224 | 0.269 | 0.216 | 0.256 | 0.348 |
| CC(C)n1nc(-c2ccc3oc(N)nc3c2)c2c(N)ncnc21 [INK128/MLN0128] (max 3.162 µM) | 0.581 | 0.534 | 0.626 | 0.682 | 0.691 | 0.474 | 0.369 | 0.429 | 0.502 | 0.745 | 0.356 | 0.791 |
| CC(C)NC[C@@H](C(=O)N1CCN(c2ncnc3c2[C@H](C)C[C@H]3O)CC1)c1ccc(Cl)cc1 [Ipatasertib/GDC0068] (max 10 µM) | 0.12 | 0.173 | 0.166 | 0.185 | 0.463 | 0.0662 | 0.156 | 0.104 | 0.223 | -0.0202 | 0.0758 | 0.0489 |
| CN(C)C(=O)c1cc2cnc(Nc3ccc(N4CCNCC4)cn3)nc2n1C1CCCC1 [LEE011/Ribociclib] (max 10 µM) | 0.449 | 0.0102 | 0.0857 | 0.315 | 0.12 | 0.27 | 0.0156 | -0.012 | 0.0162 | 0.406 | 0.244 | 0.576 |
| CCNC(=O)c1noc(-c2cc(C(C)C)c(O)cc2O)c1-c1ccc(CN2CCOCC2)cc1 [Luminespib/NVP-AUY922] (max 1 µM) | 0.539 | 0.612 | 0.75 | 0.35 | 0.68 | 0.693 | 0.548 | 0.633 | 0.648 | 0.751 | 0.53 | 0.728 |
| CCOc1cc2ncc(C#N)c(Nc3ccc(OCc4ccccn4)c(Cl)c3)c2cc1NC(=O)/C=C/CN(C)C [Neratinib/HKI272] (max 3.162 µM) | 0.421 | 0.0779 | 0.538 | 0.0236 | 0.0683 | 0.238 | 0.171 | 0.188 | 0.386 | 0.314 | 0.101 | 0.0652 |
| O=C(c1cc(Cc2n[nH]c(=O)c3ccccc23)ccc1F)N1CCN(C(=O)C2CC2)CC1 [Olaparib/AZD2281] (max 10 µM) | 0.0908 | 0.0657 | 0.135 | 0.0595 | 0.0599 | 0.0925 | 0.0584 | 0.305 | 0.0573 | 0.0373 | 0.0296 | 0.0197 |
| CC(=O)O[C@H]1C(=O)[C@@]2(C)[C@H]([C@H](OC(=O)c3ccccc3)[C@]3(O)C[C@H](OC(=O)[C@H](O)[C@@H](NC(=O)c4ccccc4)c4ccccc4)C(C)=C1C3(C)C)[C@]1(OC(C)=O)CO[C@@H]1C[C@@H]2O [Paclitaxel] (max 1 µM) | 0.75 | 0.699 | 0.793 | 0.874 | 0.844 | 0.839 | 0.658 | 0.708 | 1.01 | 0.866 | 0.65 | 0.872 |
| CS(=O)(=O)N1CCN(Cc2cc3nc(-c4cccc5[nH]ncc45)nc(N4CCOCC4)c3s2)CC1 [Pictilisib/GDC0941] (max 10 µM) | 0.276 | 0.208 | 0.36 | 0.439 | 0.387 | 0.32 | 0.211 | 0.133 | 0.205 | 0.296 | 0.129 | 0.143 |
| O=C1NC(=NCc2cccs2)SC1=Cc1ccc2ncccc2c1 [R0-3306] (max 10 µM) | 0.207 | 0.12 | 0.159 | 0.132 | 0.115 | 0.262 | 0.143 | 0.0623 | 0.185 | 0.112 | 0.0665 | 0.176 |
| CNCc1ccc(-c2[nH]c3cc(F)cc4c3c2CCNC4=O)cc1 [Rucaparib] (max 10 µM) | 0.0986 | 0.0437 | 0.203 | 0.0332 | 0.0455 | 0.0731 | 0.0989 | 0.399 | 0.101 | 0.151 | 0.0948 | 0.0862 |
| CC1(N)CCN(c2cnc(-c3cccc(Cl)c3Cl)c(N)n2)CC1 [SHP099] (max 10 µM) | 0.118 | 0.0349 | 0.137 | -0.0009 | -0.0008 | 0.0677 | 0.0653 | -0.0036 | 0.134 | 0.0593 | 0.0503 | 0.0478 |
| CN1CCN(CCOc2cc(OC3CCOCC3)c3c(Nc4c(Cl)ccc5c4OCO5)ncnc3c2)CC1 [Saracatinib/AZD0530] (max 10 µM) | 0.0722 | 0.0348 | 0.184 | 0.149 | 0.203 | 0.237 | 0.039 | 0.0385 | 0.139 | 0.31 | 0.0365 | 0.181 |
| Cc1cc(C(C)Nc2ccccc2)c2nc(N3CCOCC3)cc(=O)n2c1 (configuration not stated) [TGX221] (max 10 µM) | 0.0024 | 0.0568 | -0.0591 | 0.0431 | 0.254 | 0.0331 | 0.0193 | -0.0103 | 0.103 | 0.0318 | -0.0235 | -0.0619 |
| CN(C)C/C=C/C(=O)Nc1ccc(C(=O)Nc2cccc(Nc3ncc(Cl)c(-c4c[nH]c5ccccc45)n3)c2)cc1 [THZ1] (max 1 µM) | 0.528 | 0.381 | 0.639 | 0.159 | 0.251 | 0.487 | 0.348 | 0.196 | 0.48 | 0.483 | 0.161 | 0.767 |
| CN(C)C/C=C/C(=O)Nc1ccc(C(=O)N2CCC[C@@H](Nc3ncc(Cl)c(-c4c[nH]c5ccccc45)n3)C2)cc1 [THZ531] (max 1 µM) | 0.214 | 0.174 | 0.36 | 0.167 | 0.0912 | 0.266 | 0.176 | 0.158 | 0.404 | 0.418 | 0.0413 | 0.501 |
| CN(C)C/C=C/C(=O)Nc1ccc(C(=O)Nc2cccc(Nc3cc(-c4c[nH]c5ccccc45)ncn3)c2)cc1 [THZ-P1-2] (max 10 µM) | 0.351 | 0.124 | 0.217 | 0.131 | 0.127 | 0.216 | 0.288 | 0.272 | 0.344 | 0.0529 | 0.127 | 0.478 |
| Cc1nc(-c2cn3c(n2)-c2ccc(-c4cnn(C(C)(C)C(N)=O)c4)cc2OCC3)n(C(C)C)n1 [Taselisib/GDC0032] (max 10 µM) | 0.457 | 0.223 | 0.55 | 0.944 | 0.412 | 0.476 | 0.277 | 0.173 | 0.217 | 0.576 | 0.399 | 0.298 |
| O=C1NC(=O)[C@@H](c2cn3c4c(cccc24)CCC3)[C@@H]1c1c[nH]c2ccccc12 [Tivantinib/ARQ197] (max 10 µM) | 0.582 | 0.344 | 0.518 | 0.361 | 0.443 | 0.498 | 0.29 | 0.421 | 0.49 | 0.528 | 0.403 | 0.637 |
| Nc1ccc(-c2ccc3ncc4ccc(=O)n(-c5cccc(C(F)(F)F)c5)c4c3c2)cn1 [Torin2] (max 1 µM) | 0.46 | 0.49 | 0.54 | 0.501 | 0.511 | 0.362 | 0.291 | 0.337 | 0.437 | 0.643 | 0.295 | 0.749 |
| CC[C@@H]1C(=O)N(C)c2cnc(Nc3ccc(C(=O)N[C@H]4CC[C@H](N5CCN(CC6CC6)CC5)CC4)cc3OC)nc2N1C(C)C [Volasertib/BI6727] (max 1 µM) | 0.54 | 0.568 | 0.717 | 0.741 | 0.666 | 0.729 | 0.497 | 0.662 | 0.928 | 0.842 | 0.392 | 0.621 |
| O=C(CCCCCCC(=O)Nc1ccccc1)NO [Vorinostat] (max 10 µM) | 0.188 | 0.189 | 0.201 | 0.162 | 0.19 | 0.294 | 0.193 | 0.163 | 0.217 | 0.36 | 0.148 | 0.426 |
| C=CC(=O)Nc1ccc(C(=O)Nc2[nH]nc3c2CN(C(=O)N[C@H](CN(C)C)c2ccccc2)C3(C)C)cc1 [YKL-5-124] (max 10 µM) | 0.929 | 0.869 | 1.2 | 0.8 | 0.911 | 0.788 | 0.861 | 0.584 | 1.11 | 0.532 | 0.857 | 0.831 |
| CN1CCN(C(=O)c2ccc3cc(CCNc4ncnc5ccc(C#N)cc45)ccc3c2)CC1 [senexin b] (max 10 µM) | 0.107 | 0.181 | 0.226 | 0.219 | 0.0803 | 0.22 | 0.286 | 0.0859 | 0.28 | 0.0976 | 0.0855 | 0.435 |
